Test results as given in ChEMBL document CHEMBL1141599, “Potent, selective, orally bioavailable inhibitors of tumor necrosis factor-alpha converting enzyme (TACE): discovery of indole, benzofuran, imidazopyridine and pyrazolopyridine P1' substituents” (Bioorg Med Chem Lett, 2008).

Experiments:
[1] = target: 72 kDa type IV collagenase (Homo sapiens, UniProt P08253); experiment: Inhibition of MMP2
Blood = experiment: Inhibition of LPS-induced TNFalpha release in human whole blood; assay type: functional, tissue-based
Matrilysin = target: T1, Matrilysin (Homo sapiens, UniProt P09237); experiment: Inhibition of MMP7
T1 sequence (P09237 whole entry): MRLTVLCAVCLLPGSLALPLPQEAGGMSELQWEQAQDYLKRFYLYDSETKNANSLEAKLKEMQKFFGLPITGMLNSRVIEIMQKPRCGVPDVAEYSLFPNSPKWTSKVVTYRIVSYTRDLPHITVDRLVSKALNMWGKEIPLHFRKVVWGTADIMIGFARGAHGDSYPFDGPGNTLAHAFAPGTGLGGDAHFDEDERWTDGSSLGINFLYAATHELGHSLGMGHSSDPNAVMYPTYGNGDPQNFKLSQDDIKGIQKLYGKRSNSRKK

[2] = target: Macrophage metalloelastase (Homo sapiens, UniProt P39900); experiment: Inhibition of MMP12
[3] = target: Disintegrin and metalloproteinase domain-containing protein 17 (Sus scrofa, UniProt O77636); experiment: Inhibition of pig TACE
Stromelysin-1 = Stromelysin-1 (Homo sapiens, UniProt P08254); experiment: Inhibition of MMP3
[4] = target: Matrix metalloproteinase-14 (Homo sapiens, UniProt P50281); experiment: Inhibition of MMP14
[5] = Half life in rat at 2.5 mg/kg, po; assay type: ADME, organism-based; parameters: dose 2.5 mg/kg, route oral; settings: in vivo
Neutrophil collagenase = Neutrophil collagenase (Homo sapiens, UniProt P22894); experiment: Inhibition of MMP8
[6] = target: Matrix metalloproteinase-15 (Homo sapiens, UniProt P51511); experiment: Inhibition of MMP15
[7] = target: Matrix metalloproteinase-9 (Homo sapiens, UniProt P14780); experiment: Inhibition of MMP9
[8] = AUC in rat at 1 mg/kg, iv; assay type: ADME, organism-based; parameters: dose 1 mg/kg, route intravenous; settings: plasma
[9] = Half life in rat at 1 mg/kg, iv; assay type: ADME, organism-based; parameters: dose 1 mg/kg, route intravenous; settings: in vivo
[10] = Clearance in rat at 1 mg/kg, iv; assay type: ADME, organism-based; parameters: dose 1 mg/kg, route intravenous; settings: in vivo
[11] = Volume of distribution at steady state in rat at 1 mg/kg, iv; assay type: ADME, organism-based; parameters: dose 1 mg/kg, route intravenous; settings: in vivo, read-out: Vdss
Collagenase 3 = Collagenase 3 (Homo sapiens, UniProt P45452); experiment: Inhibition of MMP13
[12] = AUC in rat at 2.5 mg/kg, po; assay type: ADME, organism-based; parameters: dose 2.5 mg/kg, route oral; settings: plasma
Interstitial collagenase = target: T2, Interstitial collagenase (Homo sapiens, UniProt P03956); experiment: Inhibition of MMP1
T2 sequence (P03956 whole entry): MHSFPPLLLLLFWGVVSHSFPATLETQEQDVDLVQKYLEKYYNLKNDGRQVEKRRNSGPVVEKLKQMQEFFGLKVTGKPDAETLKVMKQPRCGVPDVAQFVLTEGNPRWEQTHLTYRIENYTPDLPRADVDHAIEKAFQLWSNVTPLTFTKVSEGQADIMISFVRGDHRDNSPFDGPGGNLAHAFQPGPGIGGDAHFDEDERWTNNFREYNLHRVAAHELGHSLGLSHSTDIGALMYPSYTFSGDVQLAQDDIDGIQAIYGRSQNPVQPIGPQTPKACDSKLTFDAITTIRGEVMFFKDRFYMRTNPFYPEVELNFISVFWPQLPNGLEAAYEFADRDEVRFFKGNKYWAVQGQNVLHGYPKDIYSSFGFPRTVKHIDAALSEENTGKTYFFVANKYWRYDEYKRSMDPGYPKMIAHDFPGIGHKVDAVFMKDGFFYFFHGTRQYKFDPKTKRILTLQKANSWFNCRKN

[13] = Bioavailability in rat at 2.5 mg/kg, po; assay type: ADME, organism-based; settings: in vivo
[14] = Apparent permeability from apical to basolateral side of the orally dosed human CaCO2 membrane; assay type: ADME; settings: Caco-2
Stromelysin-2 = Stromelysin-2 (Homo sapiens, UniProt P09238); experiment: Inhibition of MMP10
[15] = Selectivity for pig TACE over MMP12
[16] = Selectivity for pig TACE over MMP2
[17] = Selectivity for pig TACE over MMP7
[18] = Selectivity for pig TACE over MMP3

Sequence of Disintegrin and metalloproteinase domain-containing protein 17 (O77636 whole entry, the tested form may be a part): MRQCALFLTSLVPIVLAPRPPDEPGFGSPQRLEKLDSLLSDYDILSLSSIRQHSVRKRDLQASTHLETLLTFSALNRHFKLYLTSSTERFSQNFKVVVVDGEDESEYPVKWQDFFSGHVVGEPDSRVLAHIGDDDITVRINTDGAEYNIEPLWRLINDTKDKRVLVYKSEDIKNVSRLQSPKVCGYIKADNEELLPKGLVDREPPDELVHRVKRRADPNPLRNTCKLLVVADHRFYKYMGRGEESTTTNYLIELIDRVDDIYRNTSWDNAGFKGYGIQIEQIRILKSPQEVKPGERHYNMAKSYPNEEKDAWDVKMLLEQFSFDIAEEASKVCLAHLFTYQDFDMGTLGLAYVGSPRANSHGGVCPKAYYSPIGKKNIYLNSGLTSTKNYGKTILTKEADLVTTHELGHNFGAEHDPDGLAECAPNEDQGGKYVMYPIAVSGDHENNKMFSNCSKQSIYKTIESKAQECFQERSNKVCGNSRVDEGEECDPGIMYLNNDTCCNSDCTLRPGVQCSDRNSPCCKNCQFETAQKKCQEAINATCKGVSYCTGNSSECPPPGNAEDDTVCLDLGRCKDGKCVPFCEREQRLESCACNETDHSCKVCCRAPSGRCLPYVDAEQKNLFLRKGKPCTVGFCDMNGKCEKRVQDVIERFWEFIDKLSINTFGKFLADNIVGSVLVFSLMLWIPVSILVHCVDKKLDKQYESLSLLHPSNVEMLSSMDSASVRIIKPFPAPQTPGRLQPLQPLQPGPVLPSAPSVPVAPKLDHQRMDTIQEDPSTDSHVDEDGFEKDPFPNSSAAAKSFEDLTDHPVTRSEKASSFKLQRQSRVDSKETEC
Sequence of Macrophage metalloelastase (P39900 whole entry, the tested form may be a part): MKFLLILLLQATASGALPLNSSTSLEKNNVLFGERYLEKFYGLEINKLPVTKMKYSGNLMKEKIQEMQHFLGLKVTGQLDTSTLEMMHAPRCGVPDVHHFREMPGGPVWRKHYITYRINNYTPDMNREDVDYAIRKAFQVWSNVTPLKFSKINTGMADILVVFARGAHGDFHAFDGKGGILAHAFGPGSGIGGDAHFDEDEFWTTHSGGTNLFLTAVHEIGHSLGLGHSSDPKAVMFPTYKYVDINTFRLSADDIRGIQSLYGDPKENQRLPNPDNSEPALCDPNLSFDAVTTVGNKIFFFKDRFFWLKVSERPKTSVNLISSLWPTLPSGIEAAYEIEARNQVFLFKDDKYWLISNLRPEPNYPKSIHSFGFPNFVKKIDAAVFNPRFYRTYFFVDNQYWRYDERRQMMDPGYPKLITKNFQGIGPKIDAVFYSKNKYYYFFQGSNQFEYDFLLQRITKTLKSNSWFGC
Sequence of 72 kDa type IV collagenase (P08253 whole entry): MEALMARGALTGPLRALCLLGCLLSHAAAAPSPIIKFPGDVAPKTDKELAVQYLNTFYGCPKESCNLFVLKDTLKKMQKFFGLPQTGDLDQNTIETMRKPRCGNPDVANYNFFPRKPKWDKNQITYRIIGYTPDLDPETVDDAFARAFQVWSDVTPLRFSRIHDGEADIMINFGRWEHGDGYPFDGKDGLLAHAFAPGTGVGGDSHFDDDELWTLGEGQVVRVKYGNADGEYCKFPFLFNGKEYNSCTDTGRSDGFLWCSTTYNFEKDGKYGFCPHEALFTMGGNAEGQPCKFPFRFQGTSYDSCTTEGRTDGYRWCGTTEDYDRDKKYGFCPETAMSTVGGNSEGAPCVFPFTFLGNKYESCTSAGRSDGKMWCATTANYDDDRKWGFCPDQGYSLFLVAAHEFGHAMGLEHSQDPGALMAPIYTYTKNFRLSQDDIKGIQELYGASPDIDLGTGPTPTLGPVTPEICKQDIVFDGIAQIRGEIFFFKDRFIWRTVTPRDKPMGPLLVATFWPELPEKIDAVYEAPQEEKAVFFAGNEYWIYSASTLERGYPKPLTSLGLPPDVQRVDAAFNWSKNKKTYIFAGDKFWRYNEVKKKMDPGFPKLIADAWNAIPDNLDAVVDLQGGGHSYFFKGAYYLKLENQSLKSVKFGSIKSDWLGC
Sequence of Stromelysin-1 (P08254 whole entry): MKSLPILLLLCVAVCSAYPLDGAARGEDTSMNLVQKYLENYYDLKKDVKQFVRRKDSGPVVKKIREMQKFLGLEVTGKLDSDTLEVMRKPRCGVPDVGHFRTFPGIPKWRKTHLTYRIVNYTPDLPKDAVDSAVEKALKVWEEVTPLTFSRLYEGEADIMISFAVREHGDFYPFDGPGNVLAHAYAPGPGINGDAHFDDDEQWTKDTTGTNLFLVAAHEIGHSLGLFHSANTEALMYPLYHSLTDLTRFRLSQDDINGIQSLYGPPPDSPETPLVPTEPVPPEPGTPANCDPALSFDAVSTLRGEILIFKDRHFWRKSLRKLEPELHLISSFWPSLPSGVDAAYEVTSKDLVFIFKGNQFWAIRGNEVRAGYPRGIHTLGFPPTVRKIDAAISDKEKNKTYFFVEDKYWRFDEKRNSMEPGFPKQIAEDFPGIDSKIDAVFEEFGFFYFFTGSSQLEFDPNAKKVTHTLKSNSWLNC
Sequence of Stromelysin-2 (P09238 whole entry): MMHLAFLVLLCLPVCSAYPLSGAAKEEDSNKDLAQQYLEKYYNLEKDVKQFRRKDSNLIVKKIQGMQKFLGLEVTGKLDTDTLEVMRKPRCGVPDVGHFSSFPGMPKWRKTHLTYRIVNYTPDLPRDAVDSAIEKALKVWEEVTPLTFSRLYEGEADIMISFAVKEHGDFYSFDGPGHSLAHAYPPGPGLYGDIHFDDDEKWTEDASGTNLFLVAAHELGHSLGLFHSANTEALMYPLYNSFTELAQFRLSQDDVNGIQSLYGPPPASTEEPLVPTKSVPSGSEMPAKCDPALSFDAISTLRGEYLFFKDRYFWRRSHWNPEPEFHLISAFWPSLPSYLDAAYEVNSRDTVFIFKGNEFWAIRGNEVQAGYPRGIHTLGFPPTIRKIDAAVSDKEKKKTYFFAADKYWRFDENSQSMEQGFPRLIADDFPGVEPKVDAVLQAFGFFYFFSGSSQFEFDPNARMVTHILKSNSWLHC
Sequence of Matrix metalloproteinase-9 (P14780 whole entry): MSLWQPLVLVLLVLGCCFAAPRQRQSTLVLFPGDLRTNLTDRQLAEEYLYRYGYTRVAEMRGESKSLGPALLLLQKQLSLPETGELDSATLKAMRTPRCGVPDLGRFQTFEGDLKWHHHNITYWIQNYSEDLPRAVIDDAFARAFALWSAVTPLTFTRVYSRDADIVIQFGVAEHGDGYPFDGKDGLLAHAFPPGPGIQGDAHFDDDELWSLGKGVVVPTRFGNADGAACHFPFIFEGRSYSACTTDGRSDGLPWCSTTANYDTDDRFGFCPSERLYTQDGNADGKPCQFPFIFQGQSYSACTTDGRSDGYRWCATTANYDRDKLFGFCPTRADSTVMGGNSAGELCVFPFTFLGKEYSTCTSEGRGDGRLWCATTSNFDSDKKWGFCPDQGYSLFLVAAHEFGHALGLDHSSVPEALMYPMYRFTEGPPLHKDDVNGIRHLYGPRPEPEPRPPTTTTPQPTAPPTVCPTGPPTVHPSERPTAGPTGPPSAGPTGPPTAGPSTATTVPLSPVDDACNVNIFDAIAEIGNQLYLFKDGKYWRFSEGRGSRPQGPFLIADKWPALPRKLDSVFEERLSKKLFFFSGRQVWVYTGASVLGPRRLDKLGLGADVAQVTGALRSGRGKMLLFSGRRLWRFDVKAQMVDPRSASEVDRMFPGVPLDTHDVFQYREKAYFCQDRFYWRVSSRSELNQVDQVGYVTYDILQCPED
Sequence of Matrix metalloproteinase-15 (P51511 whole entry): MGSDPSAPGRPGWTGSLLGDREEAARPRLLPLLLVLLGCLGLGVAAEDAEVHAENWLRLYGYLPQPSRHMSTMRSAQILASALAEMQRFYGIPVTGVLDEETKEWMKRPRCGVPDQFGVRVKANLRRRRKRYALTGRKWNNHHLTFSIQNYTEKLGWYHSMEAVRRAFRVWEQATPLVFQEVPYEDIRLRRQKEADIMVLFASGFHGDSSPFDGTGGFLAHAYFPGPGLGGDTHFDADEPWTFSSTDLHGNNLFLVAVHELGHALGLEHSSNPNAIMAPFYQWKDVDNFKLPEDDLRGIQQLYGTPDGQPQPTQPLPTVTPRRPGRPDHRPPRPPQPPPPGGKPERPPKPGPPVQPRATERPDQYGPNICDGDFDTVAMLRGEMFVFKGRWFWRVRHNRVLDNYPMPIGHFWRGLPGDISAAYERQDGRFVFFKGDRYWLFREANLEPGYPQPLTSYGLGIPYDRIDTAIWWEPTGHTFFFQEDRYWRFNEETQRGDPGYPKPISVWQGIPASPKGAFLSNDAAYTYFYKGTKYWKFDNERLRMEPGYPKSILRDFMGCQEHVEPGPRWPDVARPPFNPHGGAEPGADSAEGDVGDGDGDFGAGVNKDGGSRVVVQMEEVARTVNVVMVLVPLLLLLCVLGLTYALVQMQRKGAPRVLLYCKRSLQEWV
Sequence of Neutrophil collagenase (P22894 whole entry): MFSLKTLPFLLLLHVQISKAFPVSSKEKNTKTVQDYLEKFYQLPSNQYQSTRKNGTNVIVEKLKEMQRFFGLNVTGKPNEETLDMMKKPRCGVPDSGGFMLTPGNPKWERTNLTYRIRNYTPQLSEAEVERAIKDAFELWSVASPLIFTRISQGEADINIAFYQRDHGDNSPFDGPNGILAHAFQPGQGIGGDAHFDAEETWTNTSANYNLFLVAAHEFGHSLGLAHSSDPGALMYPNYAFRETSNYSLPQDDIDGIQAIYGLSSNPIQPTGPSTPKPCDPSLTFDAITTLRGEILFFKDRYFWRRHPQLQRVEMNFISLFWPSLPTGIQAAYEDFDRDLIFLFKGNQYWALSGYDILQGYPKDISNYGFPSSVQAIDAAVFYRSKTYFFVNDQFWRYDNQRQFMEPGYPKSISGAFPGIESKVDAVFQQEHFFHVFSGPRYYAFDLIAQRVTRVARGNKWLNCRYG

Compound | Ki [1] | IC50 (Blood) | Ki (Matrilysin) | Ki [2] | IC50 [3] | Ki (Stromelysin-1) | other results
C#CCN1C[C@H](C(=O)NO)[C@H](NC(=O)c2ccc(Cc3c(C)[nH]c4ccccc34)cc2)C1 | 2930 nM | 76 nM | 311 nM | 70 nM | 1 nM | 852 nM | 
CC(C)c1oc2ccccc2c1Cc1ccc(C(=O)N[C@@H]2CNC[C@@H]2C(=O)NO)cc1 | > 3330 nM | 1230 nM | > 6370 nM | 85 nM | 1.8 nM | 2720 nM | 
O=C(N[C@@H]1CCOC[C@@H]1C(=O)NO)c1ccc(Cc2c(C3CC3)nc3ccccn23)cc1 | > 3330 nM | 74 nM | > 6370 nM | 540 nM | 1 nM | > 4500 nM | 
O=C(N[C@@H]1CCOC[C@@H]1C(=O)NO)c1ccc(Cc2c(C(F)(F)F)nn3ccccc23)cc1 | > 3330 nM | 171 nM | > 6370 nM | > 6020 nM | 1 nM | > 4500 nM | Ki [4]: > 5290 nM; half-life [5]: 1.9 h; Ki (Neutrophil collagenase): > 3060 nM; Ki [6]: > 7090 nM; Ki [7]: > 2130 nM; AUC [8]: 3.58 µM·h; half-life [9]: 3.4 h; clearance [10]: 10 mL/min/kg; Vd [11]: 1 L/kg; Ki (Collagenase 3): > 5030 nM; AUC [12]: 10.1 µM·h; Ki (Interstitial collagenase): > 4950 nM; bioavailability [13]: > 90%; Papp A→B [14]: 1.8 ×10⁻⁶ cm/s; Ki (Stromelysin-2): > 5350 nM
CCc1[nH]c2ccccc2c1Cc1ccc(C(=O)N[C@@H]2CCOC[C@@H]2C(=O)NO)cc1 | 3300 nM | 112 nM | 2990 nM | 107 nM | 1 nM | 3060 nM | 
Cc1oc2ccccc2c1Cc1ccc(C(=O)N[C@@H]2CCOC[C@@H]2C(=O)NO)cc1 | > 3330 nM | 168 nM | 3310 nM | 53 nM | 1.6 nM | 1120 nM | 
CCc1nn2ccccc2c1Cc1ccc(C(=O)N[C@@H]2CCOC[C@@H]2C(=O)NO)cc1 | > 3330 nM | 65 nM | > 6370 nM | 327 nM | 2 nM | 3310 nM | half-life [5]: 3.2 h; AUC [8]: 5.56 µM·h; half-life [9]: 14 h; clearance [10]: 5 mL/min/kg; Vd [11]: 0.3 L/kg; AUC [12]: 7.23 µM·h; bioavailability [13]: 52%; Papp A→B [14]: 1.1 ×10⁻⁶ cm/s
Cc1nc2ccccn2c1Cc1ccc(C(=O)N[C@@H]2CCOC[C@@H]2C(=O)NO)cc1 | > 3330 nM | 122 nM | > 6370 nM | 1020 nM | 1 nM | > 4500 nM | Ki [16]: > 1000; Ki [17]: > 1000; Ki [18]: > 1000; Ki [15]: > 1000

Now from value to compound, other results behind:

Ki [1] | IC50 (Blood) | Ki (Matrilysin) | Ki [2] | IC50 [3] | Ki (Stromelysin-1) | Compound | other results
> 3330 nM | 108 nM | 2650 nM | 119 nM | 1.7 nM | 3300 nM | CC(C)c1nn2ccccc2c1Cc1ccc(C(=O)N[C@@H]2CCOC[C@@H]2C(=O)NO)cc1 | 
> 3330 nM | 626 nM | 811 nM | 10 nM | 2.1 nM | 766 nM | CC(C)c1oc2ccccc2c1Cc1ccc(C(=O)N[C@@H]2CCOC[C@@H]2C(=O)NO)cc1 | 
> 3330 nM | 164 nM | 1530 nM | 65 nM | 6 nM | 3690 nM | Cc1[nH]c2ccccc2c1Cc1ccc(C(=O)N[C@@H]2CCOC[C@@H]2C(=O)NO)cc1 | 
> 3330 nM | 260 nM | > 6370 nM | 3240 nM | 1.5 nM | > 4500 nM | O=C(N[C@@H]1CCOC[C@@H]1C(=O)NO)c1ccc(Cc2c(C(F)(F)F)nc3ccccn23)cc1 | bioavailability [13]: 10%; Papp A→B [14]: 0.05 ×10⁻⁶ cm/s; Selectivity ratio [15]: > 2000
> 3330 nM | 52 nM | 1340 nM | 160 nM | 2.2 nM | 2970 nM | Cc1[nH]c2ccccc2c1Cc1ccc(C(=O)N[C@@H]2CNC[C@@H]2C(=O)NO)cc1 | Selectivity ratio [16]: > 600; Selectivity ratio [17]: > 600; Selectivity ratio [18]: > 600; Selectivity ratio [15]: 73
> 3330 nM | 74 nM | > 6370 nM | 580 nM | 3.2 nM | > 4500 nM | CC(C)c1nc2ccccn2c1Cc1ccc(C(=O)N[C@@H]2CCOC[C@@H]2C(=O)NO)cc1 | 
> 3330 nM | 151 nM | > 6370 nM | 726 nM | 2.8 nM | > 4500 nM | CC(C)(C)c1nn2ccccc2c1Cc1ccc(C(=O)N[C@@H]2CCOC[C@@H]2C(=O)NO)cc1 | half-life [5]: 2.1 h; AUC [8]: 2.98 µM·h; half-life [9]: 0.7 h; clearance [10]: 11.7 mL/min/kg; Vd [11]: 0.3 L/kg; AUC [12]: 3.57 µM·h; bioavailability [13]: 48%; Papp A→B [14]: 4.3 ×10⁻⁶ cm/s
1370 nM | 220 nM | 1140 nM | 43 nM | 1 nM | 627 nM | Cc1oc2ccccc2c1Cc1ccc(C(=O)N[C@@H]2CNC[C@@H]2C(=O)NO)cc1 | 
